This is an account of results in patent US20240123045A1, “NONAUTOLOGOUS MULTI-STRESSED CANCER CELLS AND USES THEREOF FOR VACCINATING AND TREATING CANCERS” (BRENUS PHARMA, priority 2021, published 2024).

Read-outs that look alike come from different tables or passages of the source.

The term IC50 denotes the concentration at which inhibition is half-maximal.

Assay [1] deals with colorectal human cell lines. Particulars: according to the literature; cited from earlier work.
Assay [2] relates to HCT-116. In words: Cytotoxic assay (IC50) in HCT-116. The assay is classed as cell-based, human. The source says:
(§1) DS-B: cells were exposed to a chemical stress comprising a chemical stimulation with chemotherapeutic agents commonly used for the colorectal cancer: 5-FU (Sigma, F6627), oxaliplatin (Sigma, Y0000271) or SN-38 (7-ethyl-10-hydroxy-camptothecin) (Sigma, H0165). In particular, the association of a chemotherapeutic agent with each cell line was based on literature assumptions (Table 3), and further on the degree of resistance of the cell line to each chemotherapeutic agent. For each cell line, this resistance level to each chemotherapeutic agent was assessed by determining the half maximal inhibitory concentration (IC50) in a cytotoxic assay.

The test system of assay [3] is CD95 (FAS receptor). In words: FACS marker expression: CD95. Format: cell-based, human. Particulars: HT-29 cells treated with oxaliplatin. As to the method: (§2) A comparison of marker expression was carried out to validate each DS-A and DS-B.
Assay [4] deals with CD54 (ICAM-1). In words: FACS marker expression: CD54. Particulars: HT-29 cells treated with oxaliplatin. Format: cell-based, human. The method, then:
as §2

Assay [5] deals with LoVo. In words: Cytotoxic assay (IC50) in LoVo. Format: cell-based, human.
Excerpt: as §1

Assay [6] has as its system CD107 (LAMP-1). Description: FACS marker expression: CD107. Particulars: HT-29 cells treated with oxaliplatin. Format: cell-based, human. As to the method: as §2
(§3) Finally, the vaccine composition (DP or “STC-1010”) could be formulated by pooling all six DS (3 DS-A—one for each cell line; and 3 DS-B—one for each cell line) in 100 μL doses (each comprising 3 million cells).

Assay [7] has as its system HT-29. In words: Cytotoxic assay (IC50) in HT-29. Format: cell-based, human.
Excerpt: as §1

Assay [8] has as its system CD66 (CEA). Description: FACS marker expression: CD66. Format: cell-based, human. The method, then:
as §2

Assay [9] relates to SW480. In words: Cytotoxic assay (IC50) in SW480. The assay is classed as cell-based. Particulars: Homo sapiens, SW480 cell line.
Excerpt: as §1

The subject of assay [10] is CD243 (MDR-1). Description: FACS marker expression: CD243. The assay is classed as cell-based, human. Particulars: LoVo cells treated with 5-FU. As to the method:
as §2, §3

[11] abbreviates: HCT-116 cell line, cytotoxic assay, read-out: IC50.
The mark [12] stands for this setting: LoVo cell line, cytotoxic assay, read-out: IC50.
Where [13] appears, read: HT-29 cell line, cytotoxic assay, read-out: IC50.

Regarding `O=C1[O][Pt]2([NH][C@@H]3CCCC[C@H]3[NH]2)[O]C1=O` [Oxaliplatin, oxaliplatin], the Resistance cell lines entry in [1] was “HCT-116, HT-29, LoVo, SW48”. In addition, the IC50 in [2] (setting [11]) is 600 nM; in assay [5] (setting [12]), 1100 nM; in assay [7] (setting [13]), 460 nM. In addition, in assay [3], the “CD95 expression as compared to unstressed cells” value was “overexpression”. Moreover, the “CD54 expression as compared to unstressed cells” value in [4] is reported as “overexpression”. Besides, the “CD107 expression as compared to unstressed cells” value in [6] was “overexpression”.

Regarding `O=c1[nH]cc(F)c(=O)[nH]1` [5-FU, fluorouracil], the Resistance cell lines result in [1] was “HCT-116, HT-29, SW48, SW480”. The half-maximal inhibitory concentration (IC50) in assay [2] (Homo sapiens, HCT-116) came to 17000 nM; in assay [5] (Homo sapiens, LoVo), 2400 nM; in assay [9], 23100 nM; in assay [7] (Homo sapiens, HT-29), 3600 nM. Further, the “CD66 expression as compared to unstressed cells” value in assay [8] (LoVo cells treated with 5-FU) is listed as “overexpression”. Besides, the “CD243 expression as compared to unstressed cells” value in assay [10] is given as “overexpression”.

With `CCc1c2c(nc3ccc(O)cc13)-c1cc3c(c(=O)n1C2)COC(=O)[C@]3(O)CC` [SN-38, 7-ethyl-10-hydroxy-camptothecin], the Resistance cell lines result in [1] is reported as “HCT-116, HT-29, SW48”. The IC50 in [2] (setting [11]) stood at 50 nM; in assay [5] (setting [12]) it was 22 nM; in assay [7] (setting [13]), 130 nM. The “CD66 expression as compared to unstressed cells” value in assay [8] (HCT-116 cells treated with SN-38) was “overexpression”.
